By IC50 is commonly meant the point on the concentration scale where inhibition reaches its midpoint.

Structures are written as SMILES.

This assay deals with MV4-11 cells. Nature of the assay: Cell proliferation assay (ATPlite). The format is cell-based. The conditions noted are these: Homo sapiens, MV4-11, 120 h; MV-411 cells, five days; read-out: In vitro whole cell potency in MV-411 cells, (IC50). As to the method:
(iv) Cell Proliferation Assay
MV4-11 cells were seeded into a 96-well plate at 1,000 cells/well in 150 μl medium (Alpha-MEM containing 10% FBS, 100 μg/ml Normocin, and 50 μg/ml Gentamycin, Invitrogen). A HP D300 digital dispenser was used to dose cells with DMSO or test compounds across a 10-point range of concentrations (high dose of 10 μM), and cultures were grown in a humidified 5% CO2 incubator at 37° C. After five days, plates were removed from the incubator and equilibrated to room temperature. An equal volume of ATPlite assay reagent was added to each well, and samples were processed according to manufacturer's instructions (Perkin Elmer). Luminescent signal was measured using an Envision plate reader equipped with a US-Luminescence detector.
Consider `CC1CN(c2cc(F)c(-c3cnc(N4CCOCC4)nc3)cc2NC(=O)c2cn(C)c(=O)cc2C(F)F)CCN1C` (stereo in doubt) [Example 216, 4-(difluoromethyl)-N-[4-fluoro-5-(2-morpholin-4-ylpyrimidin-5-yl)-2-[(3R)-3,4-dimethylpiperazin-1-yl]phenyl]-1-methyl-6-oxopyridine-3-carboxamide], for which the concentration for half-maximal inhibition (IC50) came out at 388 nM.
Regarding `C[C@@H]1CN(c2cc(F)c(-c3ccc(N4CCOCC4)cc3)cc2NC(=O)c2c[nH]c(=O)cc2C(F)(F)F)C[C@H](C)N1C` [Example 29, N-[4-fluoro-5-(4-morpholin-4-ylphenyl)-2-[(3R,5S)-3,4,5-trimethylpiperazin-1-yl]phenyl]-6-oxo-4-(trifluoromethyl)-1H-pyridine-3-carboxamide], the IC50 was found to be 45 nM.
Then `CN1CCN(c2cc(F)c(-c3cnc(N(C)C)nc3)cc2NC(=O)c2c[nH]c(=O)cc2C(F)(F)F)CC1` [Example 40, N-[5-[2-(dimethylamino)pyrimidin-5-yl]-4-fluoro-2-(4-methylpiperazin-1-yl)phenyl]-6-oxo-4-(trifluoromethyl)-1H-pyridine-3-carboxamide], with above 10000 nM.
The result for `CN1CCN(c2cc(F)c(-c3cnc(NC4CCCCC4)nc3)cc2NC(=O)c2c[nH]c(=O)cc2C(F)(F)F)CC1` [Example 11, N-(5-(2-(cyclohexylamino)pyrimidin-5-yl)-4-fluoro-2-(4-methylpiperazin-1-yl)phenyl)-6-oxo-4-(trifluoromethyl)-1,6-dihydropyridine-3-carboxamide] reads 1270 nM.
The result for `C[C@@H]1CN(c2ccc(-c3cnc(N4CCOCC4)nc3)cc2NC(=O)c2c[nH]c(=O)cc2C(F)(F)F)C[C@H](C)N1C` [Example 58, N-(5-(2-morpholinopyrimidin-5-yl)-2-((3R,5S)-3,4,5-trimethylpiperazin-1-yl)phenyl)-6-oxo-4-(trifluoromethyl)-1,6-dihydropyridine-3-carboxamide] reads 1470 nM; that for `CN1CCN(c2ccc(-c3cnc(N4CCOCC4)nc3)cc2NC(=O)c2c[nH]c(=O)cc2C(F)(F)F)CC1` [Example 56, N-(2-(4-methylpiperazin-1-yl)-5-(2-morpholinopyrimidin-5-yl)phenyl)-6-oxo-4-(trifluoromethyl)-1,6-dihydropyridine-3-carboxamide], 435 nM.
As for `CN1CCN(c2cc(F)c(-c3cccc(CN4CCOCC4)c3)cc2NC(=O)c2c[nH]c(=O)cc2C(F)(F)F)CC1` [Example 2, N-[4-fluoro-2-(4-methylpiperazin-1-yl)-5-[3-(morpholin-4-ylmethyl)phenyl]phenyl]-6-oxo-4-(trifluoromethyl)-1H-pyridine-3-carboxamide], the IC50 came out at 2250 nM.
The result for `C[C@H]1CN(c2cc(F)c(-c3cccc(CN4CCOCC4)c3)cc2NC(=O)c2c[nH]c(=O)cc2C(F)(F)F)CCN1C` [Example 51, (S)—N-(4-(3,4-dimethylpiperazin-1-yl)-6-fluoro-3′-(morpholinomethyl)-[1,1′-biphenyl]-3-yl)-6-oxo-4-(trifluoromethyl)-1,6-dihydropyridine-3-carboxamide] reads 389 nM.
Then `CN1CCN(c2cc(F)c(-c3ccc(NC4CCCCC4)nc3)cc2NC(=O)c2c[nH]c(=O)cc2C(F)(F)F)CC1` [Example 14, N-(5-(6-(cyclohexylamino)pyridin-3-yl)-4-fluoro-2-(4-methylpiperazin-1-yl)phenyl)-6-oxo-4-(trifluoromethyl)-1,6-dihydropyridine-3-carboxamide], with 1520 nM.
Then `C[C@@H]1CN(c2cc(F)c(-c3cccnc3)cc2NC(=O)c2c[nH]c(=O)cc2C(F)(F)F)C[C@H](C)N1C` [Example 35, N-[4-fluoro-5-pyridin-3-yl-2-[(3R,5S)-3,4,5-trimethylpiperazin-1-yl]phenyl]-6-oxo-4-(trifluoromethyl)-1H-pyridine-3-carboxamide], with 669 nM; and `CC1CN(c2cc(F)c(-c3cccc(CN4CCOCC4)c3)cc2NC(=O)c2c[nH]c(=O)cc2C(F)(F)F)CCN1C` (stereo not shown) [Example 45, N-(4-(3,4-dimethylpiperazin-1-yl)-6-fluoro-3′-(morpholinomethyl)-[1,1′-biphenyl]-3-yl)-6-oxo-4-(trifluoromethyl)-1,6-dihydropyridine-3-carboxamide], with 491 nM.
Take `CN1CCN(c2cc(F)c(-c3cnc(N4CCOCC4)nc3)cc2NC(=O)c2c[nH]c(=O)cc2C(F)F)CC1` [Example 20, 4-(difluoromethyl)-N-(4-fluoro-2-(4-methylpiperazin-1-yl)-5-(2-morpholinopyrimidin-5-yl)phenyl)-6-oxo-1,6-dihydropyridine-3-carboxamide]: the IC50 worked out at 604 nM.
Then `CN1CCN(c2cc(F)c(-c3ccc(OC4CCOCC4)nc3)cc2NC(=O)c2c[nH]c(=O)cc2C(F)(F)F)CC1` [Example 30, N-[4-fluoro-2-(4-methylpiperazin-1-yl)-5-[6-(oxan-4-yloxy)pyridin-3-yl]phenyl]-6-oxo-4-(trifluoromethyl)-1H-pyridine-3-carboxamide], with 210 nM.
As for `CN(C)C1CCN(c2cc(F)c(-c3cnc(N4CCOCC4)nc3)cc2NC(=O)c2c[nH]c(=O)cc2C(F)(F)F)C1` (stereo not shown) [Example 21, N-[2-[3-(dimethylamino)pyrrolidin-1-yl]-4-fluoro-5-(2-morpholin-4-ylpyrimidin-5-yl)phenyl]-6-oxo-4-(trifluoromethyl)-1H-pyridine-3-carboxamide], the half-maximal inhibitory concentration (IC50) came to 271 nM.
The result for `C[C@@H]1CN(c2cc(F)ccc2NC(=O)c2c[nH]c(=O)cc2C(F)(F)F)C[C@H](C)N1C` [Example 26, N-[4-fluoro-2-[(3R,5S)-3,4,5-trimethylpiperazin-1-yl]phenyl]-6-oxo-4-(trifluoromethyl)-1H-pyridine-3-carboxamide] reads above 10000 nM; that for `C[C@@H]1CN(c2cc(F)c(-c3cccc(CN4CCOCC4)c3)cc2NC(=O)c2c[nH]c(=O)cc2C(F)(F)F)C[C@H](C)N1C` [Example 52, N-(6-fluoro-3′-(morpholinomethyl)-4-((3R,5S)-3,4,5-trimethylpiperazin-1-yl)-[1,1′-biphenyl]-3-yl)-6-oxo-4-(trifluoromethyl)-1,6-dihydropyridine-3-carboxamide], above 10000 nM; that for `COc1cc(N2C[C@@H](C)N(C)[C@@H](C)C2)c(NC(=O)c2c[nH]c(=O)cc2C(F)(F)F)cc1-c1cnc(N2CCOCC2)nc1` [Example 55, N-[4-methoxy-5-(2-morpholin-4-ylpyrimidin-5-yl)-2-[(3R,5S)-3,4,5-trimethylpiperazin-1-yl]phenyl]-6-oxo-4-(trifluoromethyl)-1H-pyridine-3-carboxamide], 389 nM.
The result for `CCOc1ncc(-c2cc(NC(=O)c3c[nH]c(=O)cc3C(F)(F)F)c(N3CCN(C)CC3)cc2F)cn1` [Example 12, N-(5-(2-ethoxypyrimidin-5-yl)-4-fluoro-2-(4-methylpiperazin-1-yl)phenyl)-6-oxo-4-(trifluoromethyl)-1,6-dihydropyridine-3-carboxamide] reads 929 nM.
On to `C[C@@H]1CN(c2ncc(-c3cc(NC(=O)c4c[nH]c(=O)cc4C(F)F)c(N4CCN(C)[C@@H](C)C4)cc3F)cn2)C[C@H](C)O1` [Example 395, 4-(difluoromethyl)-N-[4-fluoro-5-[2-[(2R,6S)-2,6-dimethylmorpholin-4-yl]pyrimidin-5-yl]-2-[(3S)-3,4-dimethylpiperazin-1-yl]phenyl]-6-oxo-1H-pyridine-3-carboxamide], for which the IC50 worked out at 31 nM.
For the molecule `C[C@@H]1CN(c2cc(F)c(-c3cccc(CN4CCOCC4)c3)cc2NC(=O)c2c[nH]c(=O)cc2C(F)(F)F)CCN1C` [Example 50, (R)—N-(4-(3,4-dimethylpiperazin-1-yl)-6-fluoro-3′-(morpholinomethyl)-[1,1′-biphenyl]-3-yl)-6-oxo-4-(trifluoromethyl)-1,6-dihydropyridine-3-carboxamide], the IC50 worked out at 2900 nM.
On to `Cc1ncc(-c2cc(NC(=O)c3c[nH]c(=O)cc3C(F)(F)F)c(N3C[C@@H](C)N(C)[C@@H](C)C3)cc2F)cn1` [Example 33, N-[4-fluoro-5-(2-methylpyrimidin-5-yl)-2-[(3S,5R)-3,4,5-trimethylpiperazin-1-yl]phenyl]-6-oxo-4-(trifluoromethyl)-1H-pyridine-3-carboxamide], for which the concentration for half-maximal inhibition (IC50) is 72 nM.
In the case of `C[C@@H]1CN(c2cc(F)c(-c3ccc(N4CCOCC4)nc3)cc2NC(=O)c2c[nH]c(=O)cc2C(F)(F)F)C[C@H](C)N1C` [Example 32, N-[4-fluoro-5-(6-morpholin-4-ylpyridin-3-yl)-2-[(3S,5R)-3,4,5-trimethylpiperazin-1-yl]phenyl]-6-oxo-4-(trifluoromethyl)-1H-pyridine-3-carboxamide], the IC50 is 67 nM.
Then `CN1CCN(c2cc(F)c(-c3ccnc(N4CCOCC4)c3)cc2NC(=O)c2c[nH]c(=O)cc2C(F)(F)F)CC1` [Example 46, N-(4-fluoro-2-(4-methylpiperazin-1-yl)-5-(2-morpholinopyridin-4-yl)phenyl)-6-oxo-4-(trifluoromethyl)-1,6-dihydropyridine-3-carboxamide], with 2900 nM; and `CN1CCN(c2cc(F)c(-c3cncc(CNC4CCOCC4)c3)cc2NC(=O)c2c[nH]c(=O)cc2C(F)(F)F)CC1` [Example 48, N-(4-fluoro-2-(4-methylpiperazin-1-yl)-5-(5-(((tetrahydro-2H-pyran-4-yl)amino)methyl)pyridin-3-yl)phenyl)-6-oxo-4-(trifluoromethyl)-1,6-dihydropyridine-3-carboxmaide], with above 10000 nM; and `CN1CCN(c2cc(F)c(-c3cncc(CN[C@@H]4CCOC4)c3)cc2NC(=O)c2c[nH]c(=O)cc2C(F)(F)F)CC1` [Example 49, (R)—N-(4-fluoro-2-(4-methylpiperazin-1-yl)-5-(5-(((tetrahydrofuran-3-yl)amino)methyl)pyridin-3-yl)phenyl)-6-oxo-4-(trifluoromethyl)-1,6-dihydropyridine-3-carboxamide], with above 10000 nM.

For the origin of these results see patent US11319299B2, “Substituted carboxamides as inhibitors of WDR5 protein-protein binding” (PROPELLON THERAPEUTICS INC., priority 2016, dated 2022).
